In ChEMBL document CHEMBL4028825, “Pharmacological evaluation of a novel series of urea, thiourea and guanidine derivatives as P2X7 receptor antagonists” (Bioorg Med Chem Lett, 2017):

Target: T1, P2X purinoceptor 7 (Homo sapiens, UniProt Q99572)
T1 sequence (Q99572 whole entry): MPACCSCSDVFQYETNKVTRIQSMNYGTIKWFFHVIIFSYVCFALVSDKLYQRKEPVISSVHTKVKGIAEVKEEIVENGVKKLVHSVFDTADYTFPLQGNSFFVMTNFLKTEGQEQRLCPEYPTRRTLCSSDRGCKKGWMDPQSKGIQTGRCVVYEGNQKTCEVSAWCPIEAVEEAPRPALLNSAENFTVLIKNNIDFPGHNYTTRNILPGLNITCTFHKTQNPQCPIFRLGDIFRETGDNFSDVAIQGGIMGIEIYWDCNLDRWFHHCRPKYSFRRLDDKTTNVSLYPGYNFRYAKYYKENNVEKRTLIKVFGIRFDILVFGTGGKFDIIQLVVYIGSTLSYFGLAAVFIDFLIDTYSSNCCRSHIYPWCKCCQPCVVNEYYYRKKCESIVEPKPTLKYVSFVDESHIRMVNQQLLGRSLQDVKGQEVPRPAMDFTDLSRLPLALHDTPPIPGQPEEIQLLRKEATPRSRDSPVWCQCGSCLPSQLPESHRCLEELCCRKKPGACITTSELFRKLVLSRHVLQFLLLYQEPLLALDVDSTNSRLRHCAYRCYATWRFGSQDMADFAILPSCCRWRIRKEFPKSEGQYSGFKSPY
Experiment: Antagonist activity at P2X7 receptor in human THP1 cells assessed as inhibition of BzATP-induced YO-PRO-1 Iodide uptake measured every 30 secs for 1 hr by fluorescence assay
Type: cell-based
Details: not given

IC50	Structure (SMILES)
Nd(Insoluble)	N=C(NCC12CC3CC(CC(C3)C1)C2)Nc1ccccc1

Same assay, conditions: read-out: IC50

Structure (SMILES)	IC50 [µM]
O=C(NCc1ccncc1)NCC12CC3CC(CC(C3)C1)C2	6.75
N=C(NCc1ccccc1)NCC12CC3CC(CC(C3)C1)C2	> 10
O=C(NCc1ccccn1)NCC12CC3CC(CC(C3)C1)C2	5.95
O=C(NCCc1ccccc1)NCC12CC3CC(CC(C3)C1)C2	6.41

Now from value to compound:

IC50 [µM]	Structure (SMILES)
4.96	O=C(NCC12CC3CC(CC(C3)C1)C2)Nc1ccccc1
2.42	S=C(NCC12CC3CC(CC(C3)C1)C2)Nc1ccccc1
4.24	S=C(NCc1ccccc1)NCC12CC3CC(CC(C3)C1)C2
4.54	O=C(NCc1ccccc1)NCC12CC3CC(CC(C3)C1)C2
3.38	O=C(NCc1cccnc1)NCC12CC3CC(CC(C3)C1)C2
